Results: patent US12534474B2, “Dihydrofuropyridine derivatives as rho-kinase inhibitors” (CHIESI FARMACEUTICI S.P.A., priority 2020, dated 2026)

What was measured:
Type in all cases: biochemical
[1] = biological target: PKA (Homo sapiens, UniProt P17612); test: In vitro inhibitory activity assay for PKA, ADP-Glo, reported as selectivity ratio vs ROCK2; settings: Ki for PKA divided by Ki of ROCK2 (Method B)
Protocol: In Vitro Inhibitory Activity Assay Description for PKA
The effectiveness of compounds of the present invention to inhibit PKA activity can be determined in a 10 μL assay containing 40 mM Tris pH7.5, 20 mM MgCl2 0.1 mg/mL BSA, 50 μM DTT and 260 μM peptide substrate (kemptide) using an ADP-Glo kit (Promega). Compounds were dissolved in DMSO such that the final concentration of DMSO was 1% in the assay. All reactions/incubations are performed at 25° C. Compound and PKA enzyme (6 μL) were mixed and incubated for 30 min. Reactions were initiated by addition of ATP (4 μL) such that the final concentration of ATP in the assay was 10 μM. After a 30 minute incubation 10 μL of ADP-Glo Reagent was added and after a further 1 hour incubation 20 μL of Kinase Detection Buffer was added and the mixture incubated for a further 45 minutes. The luminescent signal was measured on a luminometer. […] Compounds were tested in dose-response format and the inhibition of kinase activity was calculated at each concentration of compound. To determine the IC50 (concentration of compound required to inhibit 50% of the enzyme activity) data were fit to a plot of % inhibition vs Log10 compound concentration using a sigmoidal fit with a variable slope and fixing the maximum to 100% and the minimum to 0%. To determine the Ki values the Cheng-Prusoff equation was utilized (Ki=IC50/(1+[S]/Km).
In vitro inhibitory activities for PKA were reported as selectivity ratio vs. ROCK2. Selectivity ratio PKA/ROCK2 was calculated by dividing the Ki value for PKA by Ki value of ROCK2 (Method B) and reported into table 1.

[2] = biological target: ROCK2 (Homo sapiens, UniProt O75116); test: In vitro Rho kinase inhibitory activity assay, ADP-Glo, Method B (ATP 200 μM); settings: read-out: Method B ROCK 2 (Ki)
Protocol: (§1) In Vitro Inhibitory Activity Assay Description (Method B)
(§2) The effectiveness of compounds of the present invention to inhibit Rho kinase activity can be determined in a 10 μL assay containing 40 mM Tris pH7.5, 20 mM MgCl2 0.1 mg/mL BSA, 50 μM DTT and 2.5 μM peptide substrate (Myelin Basic Protein) using an ADP-Glo kit (Promega). Compounds were dissolved in DMSO such that the final concentration of DMSO was 1% in the assay. All reactions/incubations are performed at 25° C. Compound (2 ul) and either Rho kinase 1 or 2 (4 μL) were mixed and incubated for 30 min. Reactions were initiated by addition of ATP (4 μL) such that the final concentration of ATP in the assay was 200 μM. After a 1 hour incubation 10 μL of ADP-Glo Reagent was added and after a further 45 minute incubation 20 ul of Kinase Detection Buffer was added and the mixture incubated for a further 30 minutes. The luminescent signal was measured on a luminometer. […] Compounds were tested in dose-response format and the inhibition of kinase activity was calculated at each concentration of compound. To determine the IC50 (concentration of compound required to inhibit 50% of the enzyme activity) data were fit to a plot of % inhibition vs Log 10 compound concentration using a sigmoidal fit with a variable slope and fixing the maximum to 100% and the minimum to 0%. To determine the Ki values the Cheng-Prusoff equation was utilized (Ki=IC50/(1+[S]/Km).

[3] = biological target: ROCK1 (Homo sapiens, UniProt Q13464); test: as above; settings: read-out: Method B ROCK 1 (Ki)
Protocol: as §1, §2

Sequence of ROCK1 (Q13464 whole entry): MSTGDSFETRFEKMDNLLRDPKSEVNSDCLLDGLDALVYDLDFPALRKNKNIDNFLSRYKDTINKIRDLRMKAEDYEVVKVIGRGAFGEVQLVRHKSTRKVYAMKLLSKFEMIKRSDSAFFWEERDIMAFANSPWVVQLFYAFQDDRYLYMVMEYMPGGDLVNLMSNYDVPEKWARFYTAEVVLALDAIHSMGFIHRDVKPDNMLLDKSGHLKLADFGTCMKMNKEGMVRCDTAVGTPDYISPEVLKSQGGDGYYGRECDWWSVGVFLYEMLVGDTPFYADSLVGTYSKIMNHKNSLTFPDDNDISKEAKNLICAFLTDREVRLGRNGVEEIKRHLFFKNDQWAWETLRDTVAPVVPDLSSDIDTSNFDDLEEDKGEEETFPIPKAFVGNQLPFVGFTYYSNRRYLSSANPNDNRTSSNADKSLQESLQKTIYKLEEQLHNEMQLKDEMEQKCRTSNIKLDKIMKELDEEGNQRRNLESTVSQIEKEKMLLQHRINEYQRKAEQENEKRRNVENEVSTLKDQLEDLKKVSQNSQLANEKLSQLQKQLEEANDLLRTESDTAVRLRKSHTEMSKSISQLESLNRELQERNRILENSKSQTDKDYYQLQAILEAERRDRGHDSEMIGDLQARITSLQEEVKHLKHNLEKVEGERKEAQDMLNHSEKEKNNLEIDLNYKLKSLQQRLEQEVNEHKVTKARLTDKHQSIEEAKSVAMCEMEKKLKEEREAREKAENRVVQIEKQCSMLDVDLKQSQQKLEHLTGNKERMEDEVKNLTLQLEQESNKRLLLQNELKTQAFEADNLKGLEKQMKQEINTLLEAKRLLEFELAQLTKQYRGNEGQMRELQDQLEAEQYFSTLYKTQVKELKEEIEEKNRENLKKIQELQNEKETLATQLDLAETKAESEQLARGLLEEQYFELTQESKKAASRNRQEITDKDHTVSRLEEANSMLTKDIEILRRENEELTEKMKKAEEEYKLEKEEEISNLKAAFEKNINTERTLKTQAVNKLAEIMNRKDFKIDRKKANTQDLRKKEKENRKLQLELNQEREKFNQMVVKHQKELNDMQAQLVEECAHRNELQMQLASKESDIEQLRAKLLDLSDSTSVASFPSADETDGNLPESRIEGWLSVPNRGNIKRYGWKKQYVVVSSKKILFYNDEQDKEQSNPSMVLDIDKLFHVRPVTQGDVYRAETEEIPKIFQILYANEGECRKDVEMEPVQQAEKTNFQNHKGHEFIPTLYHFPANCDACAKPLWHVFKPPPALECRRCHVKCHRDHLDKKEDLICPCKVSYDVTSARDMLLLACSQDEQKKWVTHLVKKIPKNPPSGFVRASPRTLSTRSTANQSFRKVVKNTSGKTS
Sequence of ROCK2 (O75116 whole entry): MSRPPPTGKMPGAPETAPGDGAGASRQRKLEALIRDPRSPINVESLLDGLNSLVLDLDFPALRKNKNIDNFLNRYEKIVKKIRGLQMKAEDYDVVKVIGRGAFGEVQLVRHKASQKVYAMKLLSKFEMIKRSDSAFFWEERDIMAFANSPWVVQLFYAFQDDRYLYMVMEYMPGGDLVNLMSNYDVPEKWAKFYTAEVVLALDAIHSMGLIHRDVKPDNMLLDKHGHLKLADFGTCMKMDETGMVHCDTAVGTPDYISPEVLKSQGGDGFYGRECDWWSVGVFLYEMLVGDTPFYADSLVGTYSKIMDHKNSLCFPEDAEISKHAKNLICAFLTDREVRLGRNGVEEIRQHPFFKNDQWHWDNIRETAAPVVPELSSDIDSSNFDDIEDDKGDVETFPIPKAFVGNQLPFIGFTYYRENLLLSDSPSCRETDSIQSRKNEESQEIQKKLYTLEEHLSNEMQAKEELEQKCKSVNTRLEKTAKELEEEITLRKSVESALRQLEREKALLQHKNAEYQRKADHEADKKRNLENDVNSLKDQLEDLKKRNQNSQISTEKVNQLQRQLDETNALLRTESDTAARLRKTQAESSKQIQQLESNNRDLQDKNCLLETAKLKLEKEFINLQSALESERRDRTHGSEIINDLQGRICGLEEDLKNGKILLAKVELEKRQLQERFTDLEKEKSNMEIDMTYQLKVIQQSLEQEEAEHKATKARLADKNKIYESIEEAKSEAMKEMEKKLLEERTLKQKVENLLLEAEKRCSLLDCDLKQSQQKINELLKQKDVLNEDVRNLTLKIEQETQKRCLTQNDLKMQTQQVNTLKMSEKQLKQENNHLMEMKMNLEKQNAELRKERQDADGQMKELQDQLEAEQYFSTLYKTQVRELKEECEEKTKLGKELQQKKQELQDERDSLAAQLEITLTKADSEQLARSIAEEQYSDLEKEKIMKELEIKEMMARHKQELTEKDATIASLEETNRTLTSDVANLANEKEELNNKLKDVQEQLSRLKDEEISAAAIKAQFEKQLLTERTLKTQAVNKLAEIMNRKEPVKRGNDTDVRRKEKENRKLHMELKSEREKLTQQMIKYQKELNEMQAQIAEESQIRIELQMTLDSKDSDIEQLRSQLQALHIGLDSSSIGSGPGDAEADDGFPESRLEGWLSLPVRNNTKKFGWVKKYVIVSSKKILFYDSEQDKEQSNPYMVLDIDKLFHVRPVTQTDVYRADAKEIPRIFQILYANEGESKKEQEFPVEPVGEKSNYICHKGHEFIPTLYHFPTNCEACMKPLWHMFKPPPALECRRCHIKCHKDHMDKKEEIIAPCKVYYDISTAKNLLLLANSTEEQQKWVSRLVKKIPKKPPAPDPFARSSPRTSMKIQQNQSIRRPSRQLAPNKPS

Compound	Ratio (PKA/ROCK2) [1]	Ki [2] [nM]	Ki [3] [nM]
Cn1cnc(CNC(=O)c2cccc(CNc3ncc(-c4ccncc4)c4c3CCO4)c2)c1 [Example 3, N-((1-methyl-1H-imidazol-4-yl)methyl)-3-(((7-(pyridin-4-yl)-2,3-dihydrofuro[3,2-c]pyridin-4-yl)amino)methyl)benzamide]	*** (ratio≥10)	≤ 3	3 to 30
O=C(NCc1cncnc1)c1cccc(CNc2ncc(-c3ccncc3)c3c2CCO3)c1 [Example 5, 3-(((7-(pyridin-4-yl)-2,3-dihydrofuro[3,2-c]pyridin-4-yl)amino)methyl)-N-(pyrimidin-5-ylmethyl)benzamide]	*** (ratio≥10)	3 to 30	3 to 30
O=C(NCc1ccon1)c1cccc(CNc2ncc(-c3ccncc3)c3c2CCO3)c1 [Example 6, N-(isoxazol-3-ylmethyl)-3-(((7-(pyridin-4-yl)-2,3-dihydrofuro[3,2-c]pyridin-4-yl)amino)methyl)benzamide]	*** (ratio≥10)	≤ 3	3 to 30
O=C(Nc1ccncc1)c1cccc(CNc2ncc(-c3ccncc3)c3c2CCO3)c1 [Example 11, N-(pyridin-4-yl)-3-(((7-(pyridin-4-yl)-2,3-dihydrofuro[3,2-c]pyridin-4-yl)amino)methyl)benzamide]	*** (ratio≥10)	≤ 3	≤ 3
COc1ccc(NC(=O)c2cccc(CNc3ncc(-c4ccncc4)c4c3CCO4)c2)nc1 [Example 14, N-(5-methoxypyridin-2-yl)-3-(((7-(pyridin-4-yl)-2,3-dihydrofuro[3,2-c]pyridin-4-yl)amino)methyl)benzamide]	*** (ratio≥10)	≤ 3	≤ 3
CC(C)(C)N1CC(CNC(=O)c2cccc(CNc3ncc(-c4ccncc4)c4c3CCO4)c2)CC1=O (centres unmarked) [Example 15, N-((1-(tert-butyl)-5-oxopyrrolidin-3-yl)methyl)-3-(((7-(pyridin-4-yl)-2,3-dihydrofuro[3,2-c]pyridin-4-yl)amino)methyl)benzamide]	*** (ratio≥10)	≤ 3	≤ 3
O=C(Nc1cccnn1)c1cccc(CNc2ncc(-c3ccncc3)c3c2CCO3)c1 [Example 17, N-(pyridazin-3-yl)-3-(((7-(pyridin-4-yl)-2,3-dihydrofuro[3,2-c]pyridin-4-yl)amino)methyl)benzamide]	*** (ratio≥10)	3 to 30	3 to 30
O=C(Nc1ccncn1)c1cccc(CNc2ncc(-c3ccncc3)c3c2CCO3)c1 [Example 18, 3-(((7-(pyridin-4-yl)-2,3-dihydrofuro[3,2-c]pyridin-4-yl)amino)methyl)-N-(pyrimidin-4-yl)benzamide]	*** (ratio≥10)	≤ 3	≤ 3
Cn1ccc(CNC(=O)c2cccc(CNc3ncc(-c4ccncc4)c4c3CCO4)c2)n1 [Example 19, N-((1-methyl-1H-pyrazol-3-yl)methyl)-3-(((7-(pyridin-4-yl)-2,3-dihydrofuro[3,2-c]pyridin-4-yl)amino)methyl)benzamide]	*** (ratio≥10)	≤ 3	3 to 30
COc1cc(NC(=O)c2cccc(CNc3ncc(-c4ccncc4)c4c3CCO4)c2)ncn1 [Example 31, N-(6-Methoxypyrimidin-4-yl)-3-(((7-(pyridin-4-yl)-2,3-dihydrofuro[3,2-c]pyridin-4-yl)amino)methyl)benzamide]	*** (ratio≥10)	≤ 3	≤ 3
CNC(=O)c1cccc(CNc2ncc(-c3ccncc3F)c3c2CCO3)c1 [Example 45, 3-(((7-(3-Fluoropyridin-4-yl)-2,3-dihydrofuro[3,2-c]pyridin-4-yl)amino)methyl)-N-methylbenzamide]	–	3 to 30	3 to 30

The next lines start with the values.

Ratio (PKA/ROCK2) [1]	Ki [2] [nM]	Ki [3] [nM]	Compound
*** (ratio≥10)	≤ 3	≤ 3	O=C(NC1CC2CN(C3COC3)CC2C1)c1cccc(CNc2ncc(-c3ccncc3)c3c2CCO3)c1 (single isomer, unassigned) [Example 43a, N-(2-(oxetan-3-yl)octahydrocyclopenta[c]pyrrol-5-yl)-3-(((7-(pyridin-4-yl)-2,3-dihydrofuro[3,2-c]pyridin-4-yl)amino)methyl)benzamide]
*** (ratio≥10)	≤ 3	≤ 3	O=C(NC1CC2CN(C3COC3)CC2C1)c1cccc(CNc2ncc(-c3ccncc3)c3c2CCO3)c1 (single isomer, unassigned) [Example 43b, N-(2-(oxetan-3-yl)octahydrocyclopenta[c]pyrrol-5-yl)-3-(((7-(pyridin-4-yl)-2,3-dihydrofuro[3,2-c]pyridin-4-yl)amino)methyl)benzamide]
*** (ratio≥10)	≤ 3	3 to 30	Cc1cc(CNC(=O)c2cccc(CNc3ncc(-c4ccncc4)c4c3CCO4)c2)no1 [Example 2, N-((5-methylisoxazol-3-yl)methyl)-3-(((7-(pyridin-4-yl)-2,3-dihydrofuro[3,2-c]pyridin-4-yl)amino)methyl)benzamide]
*** (ratio≥10)	3 to 30	3 to 30	O=C(NCCCF)c1cccc(CNc2ncc(-c3ccncc3)c3c2CCO3)c1 [Example 4, N-(3-fluoropropyl)-3-(((7-(pyridin-4-yl)-2,3-dihydrofuro[3,2-c]pyridin-4-yl)amino)methyl)benzamide]
*** (ratio≥10)	3 to 30	3 to 30	O=C(NC1CCOCC1)c1cccc(CNc2ncc(-c3ccncc3)c3c2CCO3)c1 [Example 7, 3-(((7-(pyridin-4-yl)-2,3-dihydrofuro[3,2-c]pyridin-4-yl)amino)methyl)-N-(tetrahydro-2H-pyran-4-yl)benzamide]
*** (ratio≥10)	≤ 3	3 to 30	O=C(NCc1cocn1)c1cccc(CNc2ncc(-c3ccncc3)c3c2CCO3)c1 [Example 8, N-(oxazol-4-ylmethyl)-3-(((7-(pyridin-4-yl)-2,3-dihydrofuro[3,2-c]pyridin-4-yl)amino)methyl)benzamide]
*** (ratio≥10)	3 to 30	3 to 30	O=C(NCC1(O)CC1)c1cccc(CNc2ncc(-c3ccncc3)c3c2CCO3)c1 [Example 9, N-((1-hydroxycyclopropyl)methyl)-3-(((7-(pyridin-4-yl)-2,3-dihydrofuro[3,2-c]pyridin-4-yl)amino)methyl)benzamide]
*** (ratio≥10)	≤ 3	≤ 3	CN1CCOC(CNC(=O)c2cccc(CNc3ncc(-c4ccncc4)c4c3CCO4)c2)C1 (centres unmarked) [Example 10, N-((4-methylmorpholin-2-yl)methyl)-3-(((7-(pyridin-4-yl)-2,3-dihydrofuro[3,2-c]pyridin-4-yl)amino)methyl)benzamide]
** (5≤ratio<10)	3 to 30	≤ 3	O=C(NCC1CC1)c1cccc(CNc2ncc(-c3ccncc3)c3c2CCO3)c1 [Example 12, N-(cyclopropylmethyl)-3-(((7-(pyridin-4-yl)-2,3-dihydrofuro[3,2-c]pyridin-4-yl)amino)methyl)benzamide]
*** (ratio≥10)	≤ 3	3 to 30	O=C(NC1CC(CO)C1)c1cccc(CNc2ncc(-c3ccncc3)c3c2CCO3)c1 (centres unmarked) [Example 13, N-(3-(hydroxymethyl)cyclobutyl)-3-(((7-(pyridin-4-yl)-2,3-dihydrofuro[3,2-c]pyridin-4-yl)amino)methyl)benzamide]
*** (ratio≥10)	3 to 30	3 to 30	O=C(NC1CC1)c1cccc(CNc2ncc(-c3ccncc3)c3c2CCO3)c1 [Example 16, N-cyclopropyl-3-(((7-(pyridin-4-yl)-2,3-dihydrofuro[3,2-c]pyridin-4-yl)amino)methyl)benzamide]
